# Test results reported in patent publication US20230025280A1, “PH RESPONSIVE COMPOSITIONS, FORMULATIONS, AND METHODS OF IMAGING A TUMOR” (ONCONANO MEDICINE, INC, priority 2019, published 2023).
# Where “and” joins values, the source holds several entries; their conditions need not be identical. Equal entries are not always repeated. Entries after “also recorded” stand apart in the source; their conditions may differ.
# Key:
# [1] = tested on: tumor positive surgical margins; assay: Fluorescence detection of tumor positive surgical margins versus final histopathology; assay type: in vivo, human; design: key to Histology vs. Fluorescence Correlation: TP = true positive; TN = true negative; FP = false positive; conditions: for Histology vs. Fluorescence Correlation / Surgical Margin by Fluorescence: per patient
# From the text: Tumor specimens were processed for histology according to the standard pathology practice used in clinical cancer care. Diagnosis on margins, selected histological features necessary for clinical decision making were provided. Fluorescence images were collected from the tumor and lymph node specimens and study-related biopsies. Margin width and number of positive margins were noted and correlated to the location of fluorescence in the margins. From this, the correlation between Compound 1 fluorescence and histopathology were calculated.
# In a total of 24 patients (HNSCC:13; BC:11), 9 patients (HNSCC:6; BC:3) had histologically confirmed tumor positive surgical margins that were undetected during SOC surgery. Fluorescence guided margin assessment was performed on a per-patient basis. Compound 1 imaging visualized all of these surgical margin patients yielding 100% sensitivity. […] There were 5 of 15 false positives (specificity of 67%), in which fluorescence detected tissue was not confirmed to be tumor by histopathological assessment. 5 of 14 (36%) patients had fluorescent tissues that were negative for tumor (PPV: 64%).
# In this Phase 1 study, the intraoperative and postoperative imaging data was used for a preliminary analysis of the diagnostic performance of Compound 1. Performance parameters such as MFI, CNR, and TBR were calculated in vivo and in tissue slices to characterize the ability of Compound 1 to delineate tumor tissue from background. Sensitivity and specificity for detecting tumor tissue from the adjacent normal tissue was evaluated using tissue specimen fluorescence and presented as a ROC curve. The sensitivity, specificity, and PPV of Compound 1 fluorescence in detecting pathology confirmed tumor positive margins were obtained at the patient level.
# [2] = tested on: breast cancer, HNSCC, prostate cancer, and ovarian cancer; assay: Phase 2 imaging of tumors 3-6 hours post dosing with multiple NIR cameras; assay type: in vivo, human
# Protocol: The study also utilized data collected from different NIR cameras and from multiple sites. All patients received a single I.V. dose of Compound 1, followed by routine surgery approximately 3-6 hours after infusion of Compound 1. Pre-excision and post-excision intraoperative and backtable visualization a tumor from a breast cancer patient (101-001; UPenn; VisionSense NIR camera) dosed with Compound 1 (2 mg/kg) 6±3 hr prior to surgery and an HNSCC cancer patient (102-007; UTSW; NOVADAQ SPY Elite NIR camera) dosed with Compound 1 (3 mg/kg) 6±3 hr prior to surgery are shown in FIG. 22. In each case, white light imaging of the pre- or post-excised tumor/specimen is juxtaposed with an overlay of the fluorescence observed and the white light image, indicating the presence of the tumor. Intraoperative/in vivo imaging of prostate cancer from two patients (102-008 and 102-009; UTSW; Da Vinci Firefly NIR camera with updated software/hardware) dosed with Compound 1 (3 mg/kg) 6±3 hr prior to excision of the tumor and the imaging of wound bed after excision of the tumor are shown in FIG. 23. In each case, white light imaging of the pre-excised tumor/specimen and the surgical wound bed are juxtaposed with images of the fluorescence observed. […] A tumor from a patient (101-005) with ovarian cancer dosed with Compound 1 (3 mg/kg, 6±3 hr) was imaged in vivo pre-excision as shown in FIG. 24. A white light image juxtaposed with an overlay of the fluorescence observed and the white light image, indicating the presence of the tumor.
# [3] = Safety (adverse effects) in dog-patients; assay type: in vivo; conditions: 7 dogs; 0.5-2.0 mg/kg; injection through discharge
# Protocol: Materials and methods: After evaluation and recruitment for the study, dog-patients underwent (A) pre-operation analysis to identify possible types of lesion, and (B) Compound 1 tracer was administrated at 0.5 to 2.0 mg/kg, 18-78 hours prior to surgery. During the surgery (C) intra-operative imaging was performed using a Hamamatsu PDE or custom NIR camera before and after tumor removal (or after limb amputations). Resected tissues were (D) imaged with a LI-COR Pearl Imaging station and tumor-to-normal-tissue ratios were calculated accordingly. The resected tissues were then (E) preserved for histopathology validation. Safety was assessed separately in terms of adverse effects through physical examinations, laboratory tests and the recording of adverse events from infusion through discharge from hospital.
# Results: A summary of the data from spayed or neutered dog patients that were recruited for the study is shown below (Table 16). Results from a total of seven dogs of different breeds, aged 4-12 years, body weights ranging from 20.9-59.5 kg, and with a range of tumors ware presented, including instances where more than one tumor was present. Doses studied thus far ranged from 0.5-2.0 mg/kg. […] Both acute and chronic adverse effects were monitored from the time of injection through discharge of the animals from the hospital and follow-up appointments (to remove sutures) and noted.
# HNSCC specimen = assay: Fluorescence microscopy after spraying Compound 1 onto freshly frozen tissue sections; design: species or system human; conditions: sprayed ex vivo onto freshly frozen HNSCC sections
# From the text: FIGS. 18A-18B describes fluorescence microscopy to confirm tumor-specific activation of Compound 1. […] DAPI was applied for nuclear staining (a) and Compound 1 for fluorescence visualization (b). […] RFU: relative fluorescence units.
# [4] = 24 patients (HNSCC:13; BC:11), per-patient
substance,measurement,setting,value
PEO90-140-b-P(DBA60-150-r-ICG0-3-r-AMA0-3) [Compound 1],Histology vs. Fluorescence Correlation,"[1]; 0.1 mg/kg, HNSCC",TP (2×) and TN
same,Surgical Margin by Fluorescence,"[1]; 0.1 mg/kg, HNSCC",Positive; also recorded: Negative
same,Histology vs. Fluorescence Correlation,"[1]; 0.3 mg/kg, BC",TP and TN (2×)
same,Surgical Margin by Fluorescence,"[1]; 0.3 mg/kg, BC",Positive; also recorded: Negative
same,Histology vs. Fluorescence Correlation,"[1]; 0.5 mg/kg, BC",TN
same,Surgical Margin by Fluorescence,"[1]; 0.5 mg/kg, BC",Negative
same,Histology vs. Fluorescence Correlation,"[1]; 0.5 mg/kg, HNSCC",TN and TP
same,Surgical Margin by Fluorescence,"[1]; 0.5 mg/kg, HNSCC",Negative; also recorded: Positive
same,Histology vs. Fluorescence Correlation,"[1]; 0.8 mg/kg, BC",TN and TP
same,Surgical Margin by Fluorescence,"[1]; 0.8 mg/kg, BC",Negative; also recorded: Positive
same,Histology vs. Fluorescence Correlation,"[1]; 0.8 mg/kg, HNSCC",FP
same,Surgical Margin by Fluorescence,"[1]; 0.8 mg/kg, HNSCC",Positive
same,Histology vs. Fluorescence Correlation,"[1]; 1.2 mg/kg, BC",TN (2×) and FP (2×) and TP
same,Surgical Margin by Fluorescence,"[1]; 1.2 mg/kg, BC",Negative; also recorded: Positive
same,Histology vs. Fluorescence Correlation,"[1]; 1.2 mg/kg, CRC",TN
same,Surgical Margin by Fluorescence,"[1]; 1.2 mg/kg, CRC",Negative
same,Histology vs. Fluorescence Correlation,"[1]; 1.2 mg/kg, EC",TN
same,Histology vs. Fluorescence Correlation,"[1]; 1.2 mg/kg, HNSCC",TP (3×) and FP (2×) and TN (2×)
same,Surgical Margin by Fluorescence,"[1]; 1.2 mg/kg, HNSCC",Positive; also recorded: Negative
same,Fluorescence in patients with histologically negative margin,[1]; 2 of 3 EC and 1 of 3 CRC patients,negative
same,PPV for surgical margin patients,[1]; [4],64%
same,Sensitivity for tumor positive surgical margin patients,[1]; [4],100%
same,Specificity for surgical margin patients,[1]; [4],67%
same,Patients with false positive fluorescence margins,[1]; BC,2
same,Sensitivity for positive margin patients,[1]; BC,100%
same,Specificity for positive margin patients,[1]; BC,75%
same,Patients with false positive fluorescence margins,[1]; HNSCC,3
same,Sensitivity for positive margin patients,[1]; HNSCC,100%
same,Specificity for positive margin patients,[1]; HNSCC,57%
same,False negatives in surgical margin detection,[1]; HNSCC and BC,no false negatives
same,False positives (fluorescent tissue not confirmed tumor by histopathology),"[1]; HNSCC and BC, per-patient",5 of 15
same,Histologically proven tumor positive surgical margins detected,"[1]; HNSCC:6, BC:3",9 out of 9 and 9
same,Intraoperative fluorescence in prostate cancer,"[2]; 3 mg/kg, 6±3 hr, Da Vinci Firefly camera",fluoresced intraoperatively
same,Fluorescence in the surgical bed after prostate tumor excision,"[2]; 3 mg/kg, 6±3 hr, negative margins confirmed through pathology",No fluorescence was detected
same,Fluorescence in BC and HNSCC tumors,"[2]; 3-5 hour dose schedule timing, SPY Elite camera",verified in all visible BC and HNSCC tumors
same,Ability to image tumors 3-6 hours after I.V. injection,"[2]; Phase 2, breast cancer, HNSCC, prostate cancer, ovarian cancer, 2-3 mg/kg",demonstrated
same,Adverse effects,[3],no adverse effects
same,Fluorescence delineation on tissue sections,HNSCC specimen,sharp delineation of fluorescence between the tumor and stromal tissue
